Measured values taken from the NIST ThermoML archive (doi:10.1016/j.fluid.2009.08.023).
Several values for one entry are separate records, joined by “and”; a condition that tells them apart may be missing. Identical values can stand only once.

Conditions: Liquid, Closed cell (Static) method

FC(F)CC(F)(F)F [1,1,1,3,3-pentafluoropropane]
Conditions	vapor or sublimation pressure [kPa]
235.65 K	6.9
237.61 K	7.83
239.61 K	8.89
241.65 K	10.09
243.57 K	11.33
245.57 K	12.77
247.67 K	14.43
249.72 K	16.22
251.16 K	17.6
251.64 K	18.05
252.68 K	19.12
253.7 K	20.23
255.59 K	22.39
256.66 K	23.69
257.56 K	24.84
259.6 K	27.62
261.27 K	30.07
261.47 K	30.38
261.62 K	30.62
263.88 K	34.3
265.69 K	37.48
266.4 K	38.77
267.21 K	40.32
267.51 K	40.9
267.65 K	41.19
269.61 K	45.21
271.59 K	49.58
271.73 K	49.9
272.61 K	51.93
273.73 K	54.67
275.73 K	59.81
277.71 K	65.28
277.74 K	65.39
279.71 K	71.23
279.72 K	71.27
281.62 K	77.24
281.74 K	77.66
282.67 K	80.74
283.01 K	81.9
283.62 K	84.01
285.6 K	91.2
287.57 K	98.81
287.58 K	98.82
287.63 K	99.06
289.64 K	107.32
291.68 K	116.25
292.11 K	118.22
292.56 K	120.29
293.02 K	122.46
294.05 K	127.38
296.05 K	137.42
297.68 K	146.08
298.07 K	148.16
299.99 K	158.97
302.22 K	172.36
302.61 K	174.75
302.82 K	176.04
306.06 K	197.31
308.24 K	212.7
312.05 K	241.93
314.67 K	263.68
316.8 K	282.34
318.62 K	299.22
321.02 K	322.69
324.94 K	363.8
326.92 K	386.02
328.21 K	401
328.88 K	409.17
332.34 K	452.27
334.54 K	481.58
335.06 K	488.66
337.05 K	516.55
337.07 K	516.91
337.71 K	526.04
339.46 K	552.03
340.65 K	570.3
340.66 K	570.45
343.11 K	609.1
344.74 K	636.25
345.11 K	642.16
347.04 K	675.54
348.61 K	703.69
349.13 K	713.08
349.32 K	716.41
351.61 K	759.56
363.48 K	1014
365.4 K	1060.6
368.8 K	1147.1
371.52 K	1219.9
373.61 K	1278.4
374.58 K	1306
375.9 K	1344.6
378.5 K	1422.7
380.59 K	1487.9
380.96 K	1500
383.23 K	1573.6
386.07 K	1669.5
388.53 K	1757
391.15 K	1853.4
393.55 K	1945
394.58 K	1985.6
396.2 K	2050.7
398.69 K	2153.7
401.04 K	2254.6
402.98 K	2340.8
404.3 K	2400.9
404.32 K	2401.7
405.05 K	2435.4
407.08 K	2531.5
408.53 K	2601.7
409.04 K	2626.5
409.43 K	2646
411.13 K	2731.4
413.25 K	2841.1
414.11 K	2886.6
414.65 K	2916.1
415.27 K	2949.2
417.28 K	3060.7
419.31 K	3176.2
420.09 K	3221.7
422.02 K	3337.1
422.45 K	3363
424.01 K	3459.9
424.32 K	3479.2
424.52 K	3491.6
426.47 K	3617.9
427.08 K	3658.3

FC(F)(F)CC(F)(F)F [1,1,1,3,3,3-hexafluoropropane]
Conditions	vapor or sublimation pressure
239.02 K	20.71 kPa
240.1 K	21.95 kPa
242.86 K	25.66 kPa
243.17 K	26.02 kPa
243.26 K	26.19 kPa
244.9 K	28.6 kPa
247.01 K	31.96 kPa
249.11 K	35.66 kPa
249.3 K	35.98 kPa
251.19 K	39.62 kPa
253.11 K	43.66 kPa
253.18 K	43.74 kPa
253.29 K	43.96 kPa
253.33 K	44.11 kPa
255.21 K	48.33 kPa
257.22 K	53.21 kPa
259.25 K	58.54 kPa
261.09 K	63.74 kPa
262.94 K	69.34 kPa
263.1 K	69.79 kPa
263.2 K	70.19 kPa
264.08 K	72.93 kPa
264.88 K	75.59 kPa
266.95 K	82.8 kPa
269.03 K	90.55 kPa
271.1 K	98.85 kPa
273.22 K	107.93 kPa
273.31 K	108.24 kPa
273.32 K	108.34 kPa
273.4 K	108.71 kPa
275.23 K	117.09 kPa
277.32 K	127.3 kPa
279.29 K	137.56 kPa
280.96 K	146.78 kPa
283.24 K	160.12 kPa
283.27 K	160.26 kPa
285.26 K	172.59 kPa
287.23 K	185.57 kPa
289.23 K	199.5 kPa
291.2 K	214 kPa
293.16 K	229.27 kPa
293.29 K	230.28 kPa
294.32 K	238.65 kPa
295.26 K	246.45 kPa
297.25 K	263.72 kPa
299.35 K	282.86 kPa
301.4 K	302.67 kPa
303.06 K	319.32 kPa
303.24 K	321.23 kPa
303.3 K	321.84 kPa
303.55 K	324.31 kPa
305.21 K	342.11 kPa
306.13 K	352.04 kPa
307.21 K	364.17 kPa
307.88 K	372.01 kPa
308.18 K	375.53 kPa
308.2 K	375.7 kPa
309.52 K	391.11 kPa
311.21 K	412.03 kPa
311.29 K	412.84 kPa
312.22 K	424.67 kPa
313.16 K	436.99 kPa
313.29 K	438.48 kPa
313.85 K	445.61 kPa
315.31 K	465.57 kPa
317.16 K	491.51 kPa
319.27 K	522.37 kPa
320.93 K	547.63 kPa
321.21 K	552.1 kPa
323.44 K	587.43 kPa
325.87 K	628.19 kPa and 628.25 kPa
327.21 K	651.86 kPa
328.24 K	669.95 kPa
329.19 K	687.47 kPa
330.27 K	707.58 kPa
330.43 K	710.54 kPa
330.87 K	718.92 kPa
332.2 K	744.56 kPa
332.59 K	752.25 kPa
335.42 K	809.53 kPa
337.41 K	851.82 kPa
337.88 K	862 kPa
339.87 K	906.21 kPa
341.92 K	953.67 kPa
343.98 K	1002.9 kPa
345.61 K	1043.5 kPa
346.25 K	1059.7 kPa
348.23 K	1111.2 kPa
350.37 K	1168.7 kPa
352.05 K	1215.7 kPa
352.45 K	1226.9 kPa
353.22 K	1249.3 kPa
355.64 K	1320.5 kPa
356.7 K	1352.6 kPa
359.21 K	1431.4 kPa
361.34 K	1500.8 kPa
363.46 K	1572.3 kPa
365.6 K	1647.1 kPa
367.45 K	1714.4 kPa
369.49 K	1790.5 kPa
371.35 K	1862.2 kPa
372.12 K	1892.8 kPa
373.44 K	1945.6 kPa
373.47 K	1946.8 kPa
374.62 K	1994.1 kPa
375.47 K	2029.4 kPa
377.6 K	2120.2 kPa
378.14 K	2144.1 kPa
379.74 K	2214.5 kPa
381.83 K	2310.2 kPa
383.87 K	2406.7 kPa
385.8 K	2500.8 kPa
387.8 K	2601.6 kPa
390.19 K	2726.9 kPa
392.05 K	2828.1 kPa
393.47 K	2907.6 kPa
393.73 K	2922.2 kPa
394.04 K	2940 kPa
396.05 K	3057 kPa
396.52 K	3085.8 kPa
397.97 K	3174.2 kPa

FC(C(F)(F)F)C(F)(F)F [1,1,1,2,3,3,3-heptafluoropropane]
Conditions	vapor or sublimation pressure [kPa]
233.8 K	33.41
235.53 K	36.68
237.5 K	40.7
237.93 K	41.62
239.21 K	44.45
241.12 K	48.94
243.06 K	53.89
245.07 K	59.45
247.09 K	65.47
247.15 K	65.66
249.1 K	71.95
251.21 K	79.25
253.11 K	86.34
255.19 K	94.66
257.15 K	103.11
257.2 K	103.29
258.2 K	107.8
259.06 K	111.83
261.03 K	121.45
262.97 K	131.55
265.23 K	144.08
267.13 K	155.39
269.15 K	168.13
271.12 K	181.25
271.9 K	186.72
273.22 K	196.14
275.23 K	211.33
277.22 K	227.17
277.55 K	229.88
279.11 K	243.04
281.21 K	261.71
283.19 K	280.28
283.23 K	280.58
285.14 K	299.44
287.16 K	320.43
287.95 K	329.02
289.06 K	341.15
291.11 K	364.72
292.83 K	385.4
293.23 K	390.27
294.98 K	412.44
297.07 K	440.12
297.75 K	449.31
299.11 K	468.35
301.1 K	497.27
303.22 K	529.51
306.1 K	575.88
308.04 K	608.64
318.59 K	813.28
320.55 K	856.24
321.06 K	867.63
328.3 K	1043.7
331.45 K	1127.8
338.37 K	1331.1
341.94 K	1446
348.87 K	1690.7
352.27 K	1822.1
359.69 K	2136.3
360.92 K	2192.1
371.37 K	2720.8
371.43 K	2723.8
